Results taken from patent EP3868759A1, “2,3,5-SUBSTITUTED PYRROLO[2,3-B]PYRIDINES AS ERBB MODULATORS USEFUL FOR TREATING CANCER” (PearlRiver Bio GmbH, priority 2020, dated 2021).

Assays:
Cuto-17 = assay: CellTiter-Glo cell viability, Cuto-17; format: cell-based; settings: CUTO17, 72 h, read-out: Cuto-17 CTG IC50
Description: (§1) The CellTiter-Glo Luminescent Cell Viability Assay (Promega) is a homogeneous method of determining the number of viable cells in culture. It is based on quantification of ATP, indicating the presence of metabolically active cells. Cells are seeded on day 1 at cell numbers that assure assay linearity and optimal signal intensity. After incubation for 24h in humidified chambers at 37°C and 5% CO2, compounds in DMSO are added at different concentrations. Cells are further incubated for 72 h at 37°C and 5% CO2. Cells treated with the compound vehicle DMSO are used as positive controls and cells treated with 10 µM Staurosporine serve as negative controls. At day 5 the CellTiter Glo Reagent is prepared according to the instructions of the kit (Promega Inc.): Reagent is mixed 1:1 with cell culture medium. Thereon, mixture and assay plates are equilibrated at room temperature for 20 min. Equal volumes of the reagent-medium-mixture is added to the volume of culture medium present in each well. The plates are mixed at ∼200 rpm for 2 minutes on an orbital shaker. The microplates are then incubated at room temperature for 10 minutes for stabilization of the luminescent signal. Following incubation the luminescence is recorded on a Victor microplate reader (Perkin Elmer) using a 200 ms integration time. The data is then analyzed with Excel using the XLFIT Plugin (dose response Fit 205) for IC50-determination. As quality control the Z'-factor is calculated from 16 positive and negative control values. Only assay results showing a Z'-factor ≥ 0.5 are used for further analysis.

A431 = assay: CellTiter-Glo cell viability, A431; format: cell-based; settings: Homo sapiens, A-431, 72 h, read-out: A431 CTG IC50
Description: as §1

H1975 = assay: CellTiter-Glo cell viability, H1975; format: cell-based; settings: Homo sapiens, NCI-H1975, 72 h, read-out: H1975 CTG IC50
Description: as §1

EGFR wt = EGFR wt (Homo sapiens, UniProt P00533); assay: Lance assay, EGFR wt; settings: biochemical Lance assay
EGFR T790M L858R = EGFR T790M L858R (Homo sapiens, UniProt P00533, L858R/T790M); assay: Lance assay, EGFR T790M L858R; settings: biochemical Lance assay
HER2 INS YVMA = target: T1, HER2 INS YVMA (Homo sapiens, UniProt P04626, INS775YVMA); assay: Lance Kinase Activity Assay, Her2 Exon 20 InsYVMA; settings: biochemical Lance assay
T1 construct: purchased DPF
Description: This protocol describes how the Lance Kinase Activity Assay was performed to determine IC50 values of compounds of general formula (I) against HER2 INS YVMA. The principle behind this enzymatic assay is based upon the phosphorylation of the Ulight-peptide substrate. It is detected by using a specific EU-labeled anti-phospho peptide antibody. The binding of the Eu labeled anti-phospho peptide antibody to the phosphorylated ULight labeled peptide gives rise to a FRET-signal. Binding of an inhibitor to the kinase prevents phosphorylation of the Ulight-substrate, resulting in a loss of FRET. In table 2 is summarized the relevant information for the LANCE assay. Table 2: Reagents, stock concentrations and final assay concentrations for Her2 INS YVMA.
The compounds of general formula (I) summarized in Table 3 were serial diluted from a 10 mM DMSO stock solution 1:3 over 8 steps in a total volume of 20 µl. For every sample, 8 µl of kinase-substrate mix was transferred into a suitable assay plate (e.g. Corning #3673). Compound was added via pintool transfer (10nl/well) using a Biomek FX robot (BeckmanCoulter). Reaction was started by addition of 2µl ATP working solution and mixed using variomag teleshaker (Thermo Fischer Scientific). After 1 h incubation at room temperature the reaction was stopped with 10µl detection mix containing the Eu-labeled phosphospecific antibody and 10mM EDTA. After a second incubation period of 1 h at room temperature the FRET signal was measured at 340 nm excitation, 665 nm and 615 nm emission (for the ULight-substrate and Eu-AB, respectively) with an Envision spectrophotometer (Perkin Elmer, Waltham, MA, USA) with 50 µs delay and 300 µs integration time. IC50 values were determined from the sigmoidal dose response curves with the software Quattro Workflow (Quattro GmbH, Munich, Germany).

EGFR vIII Ba/F3 = assay: CellTiter-Glo cell viability, EGFR vIII Ba/F3; format: cell-based; settings: Mus musculus, BaF3, 72 h, read-out: EGFR vIII Ba/F3 CTG IC50 /
Description: as §1

[1] = tested on: Her2 Exon 20 InsYVMA Ba/F3; assay: CellTiter-Glo cell viability, Her2 Exon 20 InsYVMA Ba/F3; format: cell-based; settings: Mus musculus, BaF3, 72 h, read-out: Her2 Exon 20 InsYVMA Ba/F3 CTG IC50
Description: as §1

[2] = tested on: EGFR Exon 20 InsNPH Ba/F3; assay: CellTiter-Glo cell viability, EGFR Exon 20 InsNPH Ba/F3; format: cell-based; settings: Mus musculus, BaF3, 72 h, read-out: EGFR Exon 20 InsNPH Ba/F3 CTG IC50
Description: as §1

EGFR T790M L858R, sequence (P00533 25-1210 T790M/L858R): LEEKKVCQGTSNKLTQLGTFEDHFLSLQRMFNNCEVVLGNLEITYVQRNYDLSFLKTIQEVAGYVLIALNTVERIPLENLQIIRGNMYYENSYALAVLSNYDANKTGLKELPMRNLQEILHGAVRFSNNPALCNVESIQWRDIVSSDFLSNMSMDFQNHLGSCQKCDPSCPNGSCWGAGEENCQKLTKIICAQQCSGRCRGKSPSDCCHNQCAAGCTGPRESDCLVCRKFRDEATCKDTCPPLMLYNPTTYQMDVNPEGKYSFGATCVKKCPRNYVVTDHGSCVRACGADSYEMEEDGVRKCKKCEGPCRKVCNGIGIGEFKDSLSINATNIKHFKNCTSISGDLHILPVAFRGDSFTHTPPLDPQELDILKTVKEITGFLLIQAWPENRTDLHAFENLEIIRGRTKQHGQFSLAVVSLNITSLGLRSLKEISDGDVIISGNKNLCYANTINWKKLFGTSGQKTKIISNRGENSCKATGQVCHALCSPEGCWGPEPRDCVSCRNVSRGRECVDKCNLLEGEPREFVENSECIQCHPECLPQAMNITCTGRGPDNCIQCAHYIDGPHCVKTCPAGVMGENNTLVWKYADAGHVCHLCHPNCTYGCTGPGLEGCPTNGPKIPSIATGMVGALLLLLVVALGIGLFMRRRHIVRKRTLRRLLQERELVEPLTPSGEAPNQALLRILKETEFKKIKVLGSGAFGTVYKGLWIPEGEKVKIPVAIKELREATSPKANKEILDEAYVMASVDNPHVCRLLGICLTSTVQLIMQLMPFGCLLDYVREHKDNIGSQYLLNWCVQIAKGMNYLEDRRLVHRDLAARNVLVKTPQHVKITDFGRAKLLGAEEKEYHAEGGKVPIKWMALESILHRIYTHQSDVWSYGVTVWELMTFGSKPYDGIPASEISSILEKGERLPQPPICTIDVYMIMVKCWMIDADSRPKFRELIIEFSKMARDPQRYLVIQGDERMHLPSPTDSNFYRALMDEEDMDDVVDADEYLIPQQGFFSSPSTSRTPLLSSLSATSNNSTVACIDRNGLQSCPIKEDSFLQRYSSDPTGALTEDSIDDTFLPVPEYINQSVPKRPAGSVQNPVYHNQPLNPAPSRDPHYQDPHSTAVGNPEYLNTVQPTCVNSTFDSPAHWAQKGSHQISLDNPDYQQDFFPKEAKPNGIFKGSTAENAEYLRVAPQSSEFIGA
EGFR wt, sequence (P00533 25-1210): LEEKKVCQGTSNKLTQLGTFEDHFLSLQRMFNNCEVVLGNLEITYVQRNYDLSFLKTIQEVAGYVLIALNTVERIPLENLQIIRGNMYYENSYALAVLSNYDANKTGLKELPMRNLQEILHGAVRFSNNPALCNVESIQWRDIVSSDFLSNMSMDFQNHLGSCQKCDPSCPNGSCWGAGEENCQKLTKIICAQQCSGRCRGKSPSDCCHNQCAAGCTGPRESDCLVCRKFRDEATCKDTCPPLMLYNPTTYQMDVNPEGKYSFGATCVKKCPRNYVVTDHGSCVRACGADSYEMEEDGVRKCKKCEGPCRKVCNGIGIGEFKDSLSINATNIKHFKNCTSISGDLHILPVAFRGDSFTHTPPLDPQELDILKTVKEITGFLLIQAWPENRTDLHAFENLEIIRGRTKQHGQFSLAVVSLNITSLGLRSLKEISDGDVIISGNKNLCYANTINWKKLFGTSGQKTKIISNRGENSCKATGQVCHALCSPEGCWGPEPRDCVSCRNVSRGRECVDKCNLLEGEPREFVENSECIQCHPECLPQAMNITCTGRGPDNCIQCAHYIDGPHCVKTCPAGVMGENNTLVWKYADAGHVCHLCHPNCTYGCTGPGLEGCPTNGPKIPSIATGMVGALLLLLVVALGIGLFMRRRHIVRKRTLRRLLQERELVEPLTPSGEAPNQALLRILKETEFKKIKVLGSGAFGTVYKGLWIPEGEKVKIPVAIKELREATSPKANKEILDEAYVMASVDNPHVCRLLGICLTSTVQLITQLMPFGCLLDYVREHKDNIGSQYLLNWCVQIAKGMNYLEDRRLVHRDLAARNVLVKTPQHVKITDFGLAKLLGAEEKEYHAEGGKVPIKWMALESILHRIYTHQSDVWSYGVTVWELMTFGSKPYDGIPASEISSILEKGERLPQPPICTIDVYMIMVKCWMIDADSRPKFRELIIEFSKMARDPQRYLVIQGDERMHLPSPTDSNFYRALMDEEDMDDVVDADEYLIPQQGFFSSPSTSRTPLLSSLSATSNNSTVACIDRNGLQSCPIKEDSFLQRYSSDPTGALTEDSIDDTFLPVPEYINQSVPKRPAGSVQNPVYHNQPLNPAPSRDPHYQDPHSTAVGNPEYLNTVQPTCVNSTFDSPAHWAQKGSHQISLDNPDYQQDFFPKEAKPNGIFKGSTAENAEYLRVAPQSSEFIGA
T1 sequence (P04626 with tags, fused parts or gaps INS775YVMA): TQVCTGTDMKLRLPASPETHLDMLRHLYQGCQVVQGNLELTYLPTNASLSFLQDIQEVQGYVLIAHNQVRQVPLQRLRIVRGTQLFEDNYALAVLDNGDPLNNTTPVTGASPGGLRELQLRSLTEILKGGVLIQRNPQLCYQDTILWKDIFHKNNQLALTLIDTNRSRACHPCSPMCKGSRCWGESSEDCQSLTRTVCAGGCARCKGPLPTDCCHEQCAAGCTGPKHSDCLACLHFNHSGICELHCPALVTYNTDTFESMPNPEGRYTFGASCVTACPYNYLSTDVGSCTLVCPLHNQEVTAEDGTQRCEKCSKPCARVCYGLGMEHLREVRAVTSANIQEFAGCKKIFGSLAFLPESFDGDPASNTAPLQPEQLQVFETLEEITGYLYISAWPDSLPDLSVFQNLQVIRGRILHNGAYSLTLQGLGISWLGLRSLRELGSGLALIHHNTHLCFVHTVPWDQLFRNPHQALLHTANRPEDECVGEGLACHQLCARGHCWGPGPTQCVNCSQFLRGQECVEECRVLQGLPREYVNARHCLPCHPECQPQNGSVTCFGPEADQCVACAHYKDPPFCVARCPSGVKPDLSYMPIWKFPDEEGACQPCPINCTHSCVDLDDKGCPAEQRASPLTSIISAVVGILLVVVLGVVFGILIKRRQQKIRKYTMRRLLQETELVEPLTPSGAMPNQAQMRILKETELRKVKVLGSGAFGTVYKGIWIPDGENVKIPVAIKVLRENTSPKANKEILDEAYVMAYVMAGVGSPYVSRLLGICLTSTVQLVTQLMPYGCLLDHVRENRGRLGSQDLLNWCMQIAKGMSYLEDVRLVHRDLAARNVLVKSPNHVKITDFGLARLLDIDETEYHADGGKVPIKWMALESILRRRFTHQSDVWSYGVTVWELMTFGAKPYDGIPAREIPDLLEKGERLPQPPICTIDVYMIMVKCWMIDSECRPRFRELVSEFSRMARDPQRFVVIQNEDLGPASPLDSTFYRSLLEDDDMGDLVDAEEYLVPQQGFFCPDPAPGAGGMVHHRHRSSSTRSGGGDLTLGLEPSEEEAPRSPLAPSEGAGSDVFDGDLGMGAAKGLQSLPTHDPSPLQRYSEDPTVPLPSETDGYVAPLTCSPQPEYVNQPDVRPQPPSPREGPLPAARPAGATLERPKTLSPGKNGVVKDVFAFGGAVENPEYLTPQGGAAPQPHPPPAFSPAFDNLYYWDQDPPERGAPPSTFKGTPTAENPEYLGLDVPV

Row | SMILES | IC50 (Cuto-17) [nM] | IC50 (A431) [nM] | IC50 (H1975) [nM] | IC50 (EGFR wt) [nM] | IC50 (EGFR T790M L858R) [nM] | IC50 (HER2 INS YVMA) [nM] | IC50 (EGFR vIII Ba/F3) [nM] | IC50 [1] [nM] | IC50 [2] [nM]
1 | C=CC(=O)Nc1cc(-c2c(-c3cnn(CC)c3)[nH]c3ncc(C(=O)OC(C)C)c(C)c23)ccc1C [Example 8, isopropyl 3-(3-acrylamido-4-methylphenyl)-2-(1-ethyl-1 H-pyrazol-4-yl)-4-methyl-1 H-pyrrolo[2,3-b]pyridine-5-carboxylate] | 100 to 500 | 1000 to 10000 | 100 to 500 | ≤ 50 | ≤ 50 | ≤ 50 | 100 to 500 | 100 to 500 | ≤ 50
2 | C=CC(=O)Nc1cc(-c2c(-c3cnn(CC4CC4)c3)[nH]c3ncc(C(=O)OC(C)C)c(C)c23)ccc1C [Example 21, isopropyl 3-(3-acrylamido-4-methylphenyl)-2-(1-(cyclopropylmethyl)-1 H-pyrazol-4-yl)-4-methyl-1 H-pyrrolo[2,3-b]pyridine-5-carboxylate] | 100 to 500 | 1000 to 10000 | 100 to 500 | ≤ 50 | ≤ 50 | 50 to 100 | 100 to 500 | 100 to 500 | 50 to 100
3 | C=CC(=O)Nc1cc(-c2c(-c3cnn(C4CCC4)c3)[nH]c3ncc(C(=O)OC(C)C)c(C)c23)ccc1C [Example 16, isopropyl 3-(3-acrylamido-4-methylphenyl)-2-(1-cyclobutyl-1 H-pyrazol-4-yl)-4-methyl-1H-pyrrolo[2,3-b]pyridine-5-carboxylate] | 500 to 1000 | 1000 to 10000 | 500 to 1000 | ≤ 50 | 100 to 500 | 500 to 1000 | 100 to 500 | 100 to 500 | 100 to 500
4 | C=CC(=O)Nc1cc(-c2c(-c3cnn(CCOC)c3)[nH]c3ncc(C(=O)OC(C)C)c(C)c23)ccc1C [Example 11, isopropyl 3-(3-acrylamido-4-methylphenyl)-2-(1-(2-methoxyethyl)-1 H-pyrazol-4-yl)-4-methyl-1 H-pyrrolo[2,3-b]pyridine-5-carboxylate] | 100 to 500 | 1000 to 10000 | 500 to 1000 | ≤ 50 | ≤ 50 | ≤ 50 | 100 to 500 | 100 to 500 | 100 to 500
5 | C=CC(=O)Nc1cc(-c2c(-c3cnn(CC)c3)[nH]c3ncc(C(=O)OC(C)C)cc23)ccc1C [Example 6, isopropyl 3-(3-acrylamido-4-methylphenyl)-2-(1-ethyl-1H-pyrazol-4-yl)-1H-pyrrolo[2,3-b]pyridine-5-carboxylate] | 500 to 1000 | 1000 to 10000 | 500 to 1000 | ≤ 50 | ≤ 50 | ≤ 50 | 100 to 500 | 100 to 500 | 100 to 500
6 | C=CC(=O)Nc1cc(-c2c(-c3cnn(Cc4ccccc4)c3)[nH]c3ncc(C(=O)OC(C)C)c(C)c23)ccc1C [Example 9, isopropyl 3-(3-acrylamido-4-methylphenyl)-2-(1-benzyl-1 H-pyrazol-4-yl)-4-methyl-1 H-pyrrolo[2,3-b]pyridine-5-carboxylate] | 500 to 1000 | 1000 to 10000 | 500 to 1000 | ≤ 50 | 100 to 500 | 500 to 1000 | 100 to 500 | 500 to 1000 | 100 to 500
7 | C=CC(=O)Nc1cc(-c2c(-c3cnn(C)c3)[nH]c3ncc(O[C@@H](C)CC)cc23)ccc1C [Example 12, (S)-N-(5-(5-(sec-butoxy)-2-(1-methyl-1H-pyrazol-4-yl)-1H-pyrrolo[2,3-b]pyridin-3-yl)-2-methylphenyl)acrylamide 2,2,2-trifluoroacetate] | 100 to 500 | 1000 to 10000 | 500 to 1000 | ≤ 50 | ≤ 50 | ≤ 50 | 100 to 500 | 100 to 500 | 100 to 500
8 | C=CC(=O)Nc1cc(-c2c(-c3cnn(C)c3)[nH]c3ncc(OCC)cc23)cc(F)c1C [Example 3, N-(5-(5-ethoxy-2-(1-methyl-1H-pyrazol-4-yl)-1H-pyrrolo[2,3-b]pyridin-3-yl)-3-fluoro-2-methylphenyl)acrylamide 2,2,2-trifluoroacetate] | ≤ 50 | 1000 to 10000 | 100 to 500 | ≤ 50 | ≤ 50 | ≤ 50 | ≤ 50 | 100 to 500 | 50 to 100
9 | C=CC(=O)Nc1cc(-c2c(-c3cn[nH]c3)[nH]c3ncc(C(=O)OC(C)C)c(C)c23)ccc1C [Example 20, isopropyl 3-(3-acrylamido-4-methylphenyl)-4-methyl-2-(1 H-pyrazol-4-yl)-1 H-pyrrolo[2,3-b]pyridine-5-carboxylate] | 500 to 1000 | 1000 to 10000 | 1000 to 10000 | ≤ 50 | ≤ 50 | 50 to 100 | 100 to 500 | 500 to 1000 | 100 to 500
10 | C=CC(=O)Nc1cc(-c2c(-c3cnn(C)c3)[nH]c3ncc(C(=O)OC(C)C)cc23)cc(F)c1C [Example 2, Isopropyl 3-(3-acrylamido-5-fluoro-4-methylphenyl)-2-(1-methyl-1H-pyrazol-4-yl)-1H-pyrrolo[2,3-b]pyridine-5-carboxylate 2,2,2-trifluoroacetate] | 100 to 500 | 1000 to 10000 | 100 to 500 | ≤ 50 | ≤ 50 | ≤ 50 | ≤ 50 | 100 to 500 | 100 to 500
11 | C=CC(=O)Nc1cc(-c2c(-c3cnn(CCC)c3)[nH]c3ncc(C(=O)OC(C)C)c(C)c23)ccc1C [Example 14, isopropyl 3-(3-acrylamido-4-methylphenyl)-4-methyl-2-(1-propyl-1 H-pyrazol-4-yl)-1H-pyrrolo[2,3-b]pyridine-5-carboxylate] | 100 to 500 | 1000 to 10000 | 100 to 500 | ≤ 50 | 50 to 100 | 100 to 500 | 100 to 500 | 100 to 500 | 50 to 100
12 | C=CC(=O)Nc1cc(-c2c(-c3cnn(C(C)C)c3)[nH]c3ncc(C(=O)OC(C)C)c(C)c23)ccc1C [Example 13, isopropyl 3-(3-acrylamido-4-methylphenyl)-2-(1-isopropyl-1 H-pyrazol-4-yl)-4-methyl-1H-pyrrolo[2,3-b]pyridine-5-carboxylate] | 100 to 500 | 1000 to 10000 | 100 to 500 | ≤ 50 | 50 to 100 | 100 to 500 | 100 to 500 | 100 to 500 | ≤ 50
13 | C=CC(=O)Nc1cc(-c2c(-c3cnn(C4CC4)c3)[nH]c3ncc(C(=O)OC(C)C)c(C)c23)ccc1C [Example 10, isopropyl 3-(3-acrylamido-4-methylphenyl)-2-(1-cyclopropyl-1 H-pyrazol-4-yl)-4-methyl-1 H-pyrrolo[2,3-b]pyridine-5-carboxylate] | 100 to 500 | 1000 to 10000 | 500 to 1000 | ≤ 50 | 50 to 100 | 50 to 100 | 100 to 500 | 100 to 500 | 50 to 100
